Results on two molecules are retold here after publication PMC12017303 (Science Advances, 2025).

One data set is described as follows: in vivo. The note with it: male, CD-1, mouse; for AUC(0-t): AUClast.
Data set [1] relates to SARS-CoV-2 WA.1 replicon in Vero ACE2 TMPRSS2. The experiment in a line: microbe, parasite or virus in culture. It counts as cell-based. As to conditions: Severe acute respiratory syndrome coronavirus 2, Vero, read-out: Replicon replication in Vero ACE2 TMPRSS2 EC50: WA.1. (Replicon systems follow genome replication, usually without infectious particles.)
In a further data set the target is cathepsin L2 (Homo sapiens, UniProt O60911).
cathepsin L2, sequence (O60911 114-334): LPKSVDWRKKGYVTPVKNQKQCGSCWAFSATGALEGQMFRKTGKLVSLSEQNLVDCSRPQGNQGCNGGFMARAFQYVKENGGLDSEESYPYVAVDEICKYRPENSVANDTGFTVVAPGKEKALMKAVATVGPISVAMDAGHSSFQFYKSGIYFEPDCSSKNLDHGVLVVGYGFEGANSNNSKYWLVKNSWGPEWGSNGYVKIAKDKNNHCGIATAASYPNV
The nature of data set [2]: in vitro. The note with it: human.
In another data set the test system is P-gp (MDR1). The experiment in a line: in vitro. The note with it: dog.
The test system of data set [3] is SARS-CoV-2 WA.1 (icSARS-CoV-2-mNG) in A549-ACE2^h. The data set can be described thus: microbe, parasite or virus in culture. It counts as cell-based. The note with it: Severe acute respiratory syndrome coronavirus 2, read-out: Viral replication in A549-ACE2^h EC50: WA.1.
Data set [4] in a line: in vitro. As to conditions: human, microsomes, pH 7.4.
Data set [5] in a line: in vitro. As to conditions: mouse, microsomes, pH 7.4.
The nature of data set [6]: in vitro. The note with it: PAMPA, pH 7.4. In general terms: PAMPA measures passive passage across an artificial lipid membrane.
The subject of data set [7] is SARS-CoV-2 EG.5.1 in A549-ACE2^h. The experiment in a line: microbe, parasite or virus in culture. The data set is classed as cell-based. The note with it: Severe acute respiratory syndrome coronavirus 2, read-out: Viral replication in A549-ACE2^h EC50: EG.5.1.
The next data set in a line: physchem. As to conditions: pH 7.4, aqueous buffer, kinetic from dmso stock.
Data set [8] deals with SARS-CoV-2 XBB.1.5 in A549-ACE2^h. The data set can be described thus: microbe, parasite or virus in culture. The data set is classed as cell-based. As to conditions: Severe acute respiratory syndrome coronavirus 2, read-out: Viral replication in A549-ACE2^h EC50: XBB.1.5.
For data set [9] the following is noted: male, CD-1, mouse, in vivo.
Data set [10] has as its system SARS-CoV-2 XBB.1.16 in A549-ACE2^h. The experiment in a line: microbe, parasite or virus in culture. The note with it: Severe acute respiratory syndrome coronavirus 2, read-out: Viral replication in A549-ACE2^h EC50: XBB.1.16. The data set is classed as cell-based.
Data set [11] in a line: in vitro. As to conditions: plasma, pH 7.4, PPB.
Data set [12] deals with SARS-CoV-2 BA.2.86.1 replicon in Vero ACE2 TMPRSS2. The data set can be described thus: microbe, parasite or virus in culture. It counts as cell-based. As to conditions: Severe acute respiratory syndrome coronavirus 2, Vero, read-out: Replicon replication in Vero ACE2 TMPRSS2 EC50: BA.2.86.1.
The conditions of data set [13]: rat, in vivo; cited from earlier work.

In brackets after ≈: the same amount, converted by molar mass. Bounds are passed on as bounds.

A word on the bioavailability: it is dose-corrected exposure relative to a reference, in per cent. A low value points to little systemic uptake. By MRT inf is commonly meant the average time that molecules of a dose stay in the body. The term clearance denotes the volume of plasma or blood freed of the substance per unit of time. A lower clearance goes with inefficient removal. Broadly, the half-life is the time needed for the level to fall by half in the phase considered. Low values mean fast loss, high ones slow loss. As usually defined, the AUC(0-inf) is the area under the concentration-time curve extrapolated to infinity. Higher therefore signals more exposure. A word on the AUC(0-t): it is exposure summed from dosing to a finite time, without extrapolation to infinity. Lower therefore signals low exposure. As usually defined, the Vd is a proportionality between amount in the body and measured concentration, not a real space. High values mean extensive tissue distribution, low ones confinement near the circulation. A word on the Cmax: it is the maximum level reached in the sampled fluid or tissue. Usually Tmax stands for the time at which the peak concentration occurs. In general, EC50 refers to the concentration at which the effect is half-maximal. As usually defined, the viability is a read-out of living cells in per cent, often relative to untreated cells. High values mean less harm to the cells, low ones more harm to the cells. In general, Papp B→A refers to how fast a substance crosses the layer from the basolateral side. What is called Papp A→B is the apparent permeability from the apical to the basolateral side of a cell layer. In general, Papp refers to the rate of passage across a membrane or cell layer, normalised by area and donor concentration. Read a low Papp as slow passage. For orientation: solubility means how much of the substance goes into solution per volume. A low value points to little dissolved substance. The term fraction unbound denotes free concentration divided by total concentration. A low value points to little free substance. Molecule `O=c1[nH]c(-c2ccc(Cl)c(Cl)c2)c(-n2nnc3cc(F)c(F)cc32)c(=O)n1-c1cncc2ccccc12` [AVI-4673] returned a bioavailability in the data set “in vivo” (F) of 71.6%. This molecule yielded an MRT inf in “in vivo” (iv, 10 mg/kg) of 1.53 h. Further, the clearance in “in vivo” (iv, 10 mg/kg) is 51.7 mL/min/kg. The half-life is 2.19 h in the data set “in vivo” (iv, 10 mg/kg); 2.12 h in “in vivo” (po, 50 mg/kg); greater than 2 h in “in vitro [4]”; greater than 2 h in “in vitro [5]”. Besides, the AUC(0-inf) came to 3220 ng·h/mL in “in vivo” (iv, 10 mg/kg, AUCINF); 11500 ng·h/mL in “in vivo” (po, 50 mg/kg, AUCINF); 11500 ng·h/mL in “in vivo” (po, 50 mg/kg, AUCinf). The AUC(0-t) was 3100 ng·h/mL in the data set “in vivo” (iv, 10 mg/kg) and 11500 ng·h/mL in the data set “in vivo” (po, 50 mg/kg). The Vd in the data set “in vivo” (iv, 10 mg/kg, Vss) worked out at 4.75 L/kg. Moreover, the Cmax in the data set “in vivo” (po, 50 mg/kg, CMax) came to 2420 ng/mL; in the data set “in vivo” (po, 50 mg/kg, Cmax), 2420 ng/mL. In addition, the Tmax came to 4 h in “in vivo” (po, 50 mg/kg, TMax) and 2 h in “in vivo” (po, 50 mg/kg, Tmax). Besides, the half-maximal effective concentration (EC50) came to 940 nM in [1]; 190 nM in data set [3]; 230 nM in [7]; 150 nM in data set [8]; 360 nM in [10]; 280 nM in data set [12]. Further, on cathepsin L2, the “cathepsin L2 inhibition, result in words” value was “low-micromolar inhibitor”. The CC50 in the data set “in vitro [2]” is greater than 100000 nM. In the data set “in vitro [2]”, this molecule gave a viability at 100 µM of 94.4%. Also, the Papp B→A with P-gp (MDR1) (MDCK-MDR1) worked out at 18.4 ×10⁻⁶ cm/s. Moreover, the apparent permeability from apical to basolateral (Papp A→B) with P-gp (MDR1) (MDCK-MDR1, MDCK AB) stood at 2.1 ×10⁻⁶ cm/s. Besides, the Papp in the data set “in vitro [6]” was determined as 4.99 ×10⁻⁶ cm/s. In the data set “physchem”, this molecule had a solubility of 475 µM (≈ 255 µg/mL). Also, the “Mouse F” value in data set [9] came to 76. The molecule further had an AUClast in data set [9] (po, 50 mg/kg) of 11500 ng·h/mL. Also, the “Plasma T½” value in data set [9] (po, 50 mg/kg) is 2.12 h. In the data set “in vitro [11]”, this molecule gave a free fraction (fraction unbound) of 0.005.
As to `CC(C)(C)[C@H](NC(=O)C(F)(F)F)C(=O)N1C[C@H]2[C@@H]([C@H]1C(=O)N[C@H](C#N)C[C@@H]1CCNC1=O)C2(C)C` [nirmatrelvir, reference compound], the concentration giving a half-maximal response (EC50) was 620 nM in data set [1]; 31 nM in data set [3]; 67 nM in data set [7]; 21 nM in data set [8]; 41 nM in data set [10]; 810 nM in [12]. Moreover, in [13], the “brain concentrations relative to EC90” value was “only three times the respective EC90 value”.
